Patent US10947271B2, “Antibacterial agents” (THE UNIVERSITY OF QUEENSLAND, priority 2014, dated 2021)

Tests used:
[1] = Stability of compounds in human plasma; conditions: human, plasma, pH 7.4
Method: Briefly test compounds (20 μM) were prepared from a 1 mM stock solution. The human plasma sample (200 μl) was diluted with 160 μl phosphate-buffer saline (PBS, pH 7.4) to a concentration of 50% v/v before use. Solutions were then vortexed and placed on a 37° C. shaker and shaken gently for 10 minutes. 40 μl of the test compounds were then added to the plasma sample and vortexed. For the reaction time t=0 hour, 50 μl of sample was immediately transferred into an eppendorf tube and quenched with 150 μl cold acetonitrile. The remaining plasma solution was incubated and shaken at 37° C. Other samples were collected at time points of 0, 1, 3, 6 and 24 hours whereby 50 μl aliquots were removed and quenched with 150 μl cold acetonitrile. All samples were placed in a 4° C. fridge for 10 minutes then centrifuged at 3000 rpm for 15 minutes. The supernatant (100 μl) was transferred to a glass vial insert for LCMS analysis. The percentage of test compounds remaining at the individual time points relative to sample at time point 0 hour were reported.
Plasma: Human Plasma (Pooled Normal Human Plasma Heparin Anticoagulant 50 mL (IPLA-2 N-04 lot IR09-1001, originally from Innovative Research and imported by BioCore).
All compounds in 100% water (40 μL in 400 μL assay volume equivalent […])
Compounds: 40 μL of the vancomycin derivative solution was added to 160 μL of PBS (pH 7.4) respectively in an Eppendorf tube. 600 μL of cold acetonitrile was added, the tube vortexed and transferred to a glass vial for LC-MS analysis.
Eucatropine: 200 μL of plasma and 190 μL of buffer were vortexed, shaken at 37° C. for 10 minutes. 10 μL of eucatropine solution was then added and the tube vortexed. A 50 μL aliquot was immediately transferred to an Eppendorf tube, 150 μL of cold acetonitrile added and the tube transferred to a 4° C. fridge for 10 minutes. The remaining plasma solution was then transferred to the incubator and shaken at 37° C. The tube was retrieved from the fridge, centrifuged at 3000 rpm for 15 min and 100 μL of supernatant transferred to a glass vial insert for LC-MS analysis. 50 μL aliquots were processed as above at 1, […], 3, 6 and 24 hours and 5 μL was injected into triple quad MS system for analysis. Vancomycin derivatives: 200 μL of plasma and 160 μL of buffer were vortexed and shaken at 37° C. for 10 minutes. 40 μL of compound was then added and the sample was processed as above.

[2] = test system: Enterococcus faecium MDR Van A ATCC 51559; assay: MIC assay, E. faecium MDR Van A ATCC 51559; type: cell-based; conditions: 24 h incubation, visual reading
How it was run: (§1)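 Mid-log cultures in MHB were added at 5×10e5 CFU/mL to compounds diluted twofold from 8 to 0.003 μg/ml. Visual inspection after 24 h incubation at 37° C. gave the MIC, the lowest concentration without visible growth.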

[3] = test system: Staphylococcus aureus MRSA ATCC 43300; assay: MIC assay, S. aureus MRSA ATCC 43300; type: cell-based; conditions: 24 h incubation, visual reading
How it was run: as §1

[4] = test system: Streptococcus pneumoniae MDR ATCC 700677; assay: MIC assay, S. pneumoniae MDR ATCC 700677; type: cell-based; conditions: 24 h incubation, visual reading
How it was run: as §1

Molecule | % compound remaining after incubation in 50% human plasma ([1]; 0 h) [%] | % compound remaining after incubation in 50% human plasma ([1]; 1 h) [%] | % compound remaining after incubation in 50% human plasma ([1]; 3 h) [%] | % compound remaining after incubation in 50% human plasma ([1]; 6 h) [%] | % compound remaining after incubation in 50% human plasma ([1]; 24 h) [%] | Minimum Inhibitory Concentration (MIC) E. faecium ATCC51559 [2] | Minimum Inhibitory Concentration (MIC) Staph. aureus ATCC43300 [3] | Minimum Inhibitory Concentration (MIC) S. pneumoniae ATCC 700677 [4]
nC13CO-KKK-C(SS-nEt-NH-Vanc)-OH [MCC_000535, reference compound] | 100 | 77 | 64 | 51 | 3 |  |  | 
CCCCCCCCCCCC(=O)N[C@@H](CCCCN)C(=O)N[C@@H](CCCCN)C(=O)NCCCNC(=O)[C@H]1NC(=O)[C@H]2NC(=O)[C@H](NC(=O)[C@@H]3NC(=O)[C@H](CC(N)=O)NC(=O)[C@H](NC(=O)[C@@H](CC(C)C)NC)[C@H](O)c4ccc(c(Cl)c4)Oc4cc3cc(c4O[C@@H]3O[C@H](CO)[C@@H](O)[C@H](O)[C@H]3O[C@H]3C[C@](C)(N)[C@H](O)[C@H](C)O3)Oc3ccc(cc3Cl)[C@H]2O)c2ccc(O)c(c2)-c2c(O)cc(O)cc21 [MCC_000978] |  |  |  |  |  | xxx (xxx = 0.1-<1) | xxxxx (xxxxx = <0.01) | xxxxx (xxxxx = <0.01)
CCCCCCCCCC(=O)N[C@@H](CCCNC(=N)N)C(=O)N1CCC(CNC(=O)[C@H]2NC(=O)[C@H]3NC(=O)[C@H](NC(=O)[C@@H]4NC(=O)[C@H](CC(N)=O)NC(=O)[C@H](NC(=O)[C@@H](CC(C)C)NC)[C@H](O)c5ccc(c(Cl)c5)Oc5cc4cc(c5O[C@@H]4O[C@H](CO)[C@@H](O)[C@H](O)[C@H]4O[C@H]4C[C@](C)(N)[C@H](O)[C@H](C)O4)Oc4ccc(cc4Cl)[C@H]3O)c3ccc(O)c(c3)-c3c(O)cc(O)cc32)CC1 [MCC_005484] |  |  |  |  |  | x (x = >4) | xxxxx (xxxxx = <0.01) | xxxxx (xxxxx = <0.01)
CCCCCCCCCCCCCC(=O)N[C@@H](CCCCN)C(=O)N[C@@H](CCCCN)C(=O)N[C@@H](CCCCN)C(=O)N[C@@H](CCCCNC(=O)[C@H]1NC(=O)[C@H]2NC(=O)[C@H](NC(=O)[C@@H]3NC(=O)[C@H](CC(N)=O)NC(=O)[C@H](NC(=O)[C@@H](CC(C)C)NC)[C@H](O)c4ccc(c(Cl)c4)Oc4cc3cc(c4O[C@@H]3O[C@H](CO)[C@@H](O)[C@H](O)[C@H]3O[C@H]3C[C@](C)(N)[C@H](O)[C@H](C)O3)Oc3ccc(cc3Cl)[C@H]2O)c2ccc(O)c(c2)-c2c(O)cc(O)cc21)C(=O)NC [MCC_000343] |  |  |  |  |  | xxxx (xxxx = 0.01-<0.1) | xxxxx (xxxxx = <0.01) | xxxxx (xxxxx = <0.01)
CCCCCCCCCC(=O)NC(CCCCN)C(=O)NC(CCCCN)C(=O)NC(CCCCNC(=O)C1NC(=O)C2NC(=O)C(NC(=O)C3NC(=O)C(CC(N)=O)NC(=O)C(NC(=O)C(CC(C)C)NC)C(O)c4ccc(c(Cl)c4)Oc4cc3cc(c4OC3OC(CO)C(O)C(O)C3OC3CC(C)(N)C(O)C(C)O3)Oc3ccc(cc3Cl)C2O)c2ccc(O)c(c2)-c2c(O)cc(O)cc21)C(=O)NC (centres unmarked) [MCC_000492] |  |  |  |  |  | x (x = >4) | xxxxx (xxxxx = <0.01) | xxxxxx

The remaining lines, values ahead:

% compound remaining after incubation in 50% human plasma ([1]; 0 h) [%] | % compound remaining after incubation in 50% human plasma ([1]; 1 h) [%] | % compound remaining after incubation in 50% human plasma ([1]; 3 h) [%] | % compound remaining after incubation in 50% human plasma ([1]; 6 h) [%] | % compound remaining after incubation in 50% human plasma ([1]; 24 h) [%] | Minimum Inhibitory Concentration (MIC) E. faecium ATCC51559 [2] | Minimum Inhibitory Concentration (MIC) Staph. aureus ATCC43300 [3] | Minimum Inhibitory Concentration (MIC) S. pneumoniae ATCC 700677 [4] | Molecule
 |  |  |  |  | xx (xx = 1-4) | xxxxx (xxxxx = <0.01) | xxxxx (xxxxx = <0.01) | CCCCCC1CCC(C(=O)NC(CCCCN)C(=O)NC(CCCCN)C(=O)NCCCNC(=O)C2NC(=O)C3NC(=O)C(NC(=O)C4NC(=O)C(CC(N)=O)NC(=O)C(NC(=O)C(CC(C)C)NC)C(O)c5ccc(c(Cl)c5)Oc5cc4cc(c5OC4OC(CO)C(O)C(O)C4OC4CC(C)(N)C(O)C(C)O4)Oc4ccc(cc4Cl)C3O)c3ccc(O)c(c3)-c3c(O)cc(O)cc32)CC1 (centres unmarked) [MCC_005485]
 |  |  |  |  | x (x = >4) | xx (xx = 1-4) | xx (xx = 1-4) | CCCCCCCC(=O)N[C@@H](CCCCN)C(=O)N[C@@H](CCCCNC(=O)[C@H]1NC(=O)[C@H]2NC(=O)[C@H](NC(=O)[C@@H]3NC(=O)[C@H](CC(N)=O)NC(=O)[C@H](NC(=O)[C@@H](CC(C)C)NC)[C@H](O)c4ccc(c(Cl)c4)Oc4cc3cc(c4O[C@@H]3O[C@H](CO)[C@@H](O)[C@H](O)[C@H]3O[C@H]3C[C@](C)(N)[C@H](O)[C@H](C)O3)Oc3ccc(cc3Cl)[C@H]2O)c2ccc(O)c(c2)-c2c(O)cc(O)cc21)C(=O)O [MCC_005222]
 |  |  |  |  | x (x = >4) | xxxx (xxxx = 0.01-<0.1) | xxxx (xxxx = 0.01-<0.1) | CCCCCCCCCC(=O)N[C@@H](CCCNC(=N)N)C(=O)N[C@@H](CCCNC(=N)N)C(=O)N[C@@H](CCCCNC(=O)[C@H]1NC(=O)[C@H]2NC(=O)[C@H](NC(=O)[C@@H]3NC(=O)[C@H](CC(N)=O)NC(=O)[C@H](NC(=O)[C@@H](CC(C)C)NC)[C@H](O)c4ccc(c(Cl)c4)Oc4cc3cc(c4O[C@@H]3O[C@H](CO)[C@@H](O)[C@H](O)[C@H]3O[C@H]3C[C@](C)(N)[C@H](O)[C@H](C)O3)Oc3ccc(cc3Cl)[C@H]2O)c2ccc(O)c(c2)-c2c(O)cc(O)cc21)C(=O)O [MCC_005507]
 |  |  |  |  | xx (xx = 1-4) | xxxxx (xxxxx = <0.01) | xxxxx (xxxxx = <0.01) | CCCCCCCCCCCC(=O)N[C@@H](CCCCN)C(=O)N[C@@H](CCCCNC(=O)[C@H]1NC(=O)[C@H]2NC(=O)[C@H](NC(=O)[C@@H]3NC(=O)[C@H](CC(N)=O)NC(=O)[C@H](NC(=O)[C@@H](CC(C)C)NC)[C@H](O)c4ccc(c(Cl)c4)Oc4cc3cc(c4O[C@@H]3O[C@H](CO)[C@@H](O)[C@H](O)[C@H]3O[C@H]3C[C@](C)(N)[C@H](O)[C@H](C)O3)Oc3ccc(cc3Cl)[C@H]2O)c2ccc(O)c(c2)-c2c(O)cc(O)cc21)C(N)=O [MCC_005063]
 |  |  |  |  | x (x = >4) | xxxx (xxxx = 0.01-<0.1) | xxxx (xxxx = 0.01-<0.1) | CCCCCCCCCCC(=O)N[C@@H](CCCCN)C(=O)N[C@@H](CCCCNC(=O)[C@H]1NC(=O)[C@H]2NC(=O)[C@H](NC(=O)[C@@H]3NC(=O)[C@H](CC(N)=O)NC(=O)[C@H](NC(=O)[C@@H](CC(C)C)NC)[C@H](O)c4ccc(c(Cl)c4)Oc4cc3cc(c4O[C@@H]3O[C@H](CO)[C@@H](O)[C@H](O)[C@H]3O[C@H]3C[C@](C)(N)[C@H](O)[C@H](C)O3)Oc3ccc(cc3Cl)[C@H]2O)c2ccc(O)c(c2)-c2c(O)cc(O)cc21)C(N)=O [MCC_005062]
 |  |  |  |  | xx (xx = 1-4) | xxxxx (xxxxx = <0.01) | xxxx (xxxx = 0.01-<0.1) | CCCCCCCCCC(=O)NC(CCCCN)C(=O)NC(CCCNC(=N)N)C(=O)NCCCNC(=O)C1NC(=O)C2NC(=O)C(NC(=O)C3NC(=O)C(CC(N)=O)NC(=O)C(NC(=O)C(CC(C)C)NC)C(O)c4ccc(c(Cl)c4)Oc4cc3cc(c4OC3OC(CO)C(O)C(O)C3OC3CC(C)(N)C(O)C(C)O3)Oc3ccc(cc3Cl)C2O)c2ccc(O)c(c2)-c2c(O)cc(O)cc21 (centres unmarked) [MCC_005486]
